Assays:
Experiment in all cases: kinome screen (33PanQinase)
Type in all cases: biochemical
IRAK4 = target: T1, IRAK4 (Homo sapiens, UniProt Q9NWZ3)
T1 construct: purchased Reaction Biology Europe GmbH (formerly ProQinase)
T1 sequence (Q9NWZ3 1-460): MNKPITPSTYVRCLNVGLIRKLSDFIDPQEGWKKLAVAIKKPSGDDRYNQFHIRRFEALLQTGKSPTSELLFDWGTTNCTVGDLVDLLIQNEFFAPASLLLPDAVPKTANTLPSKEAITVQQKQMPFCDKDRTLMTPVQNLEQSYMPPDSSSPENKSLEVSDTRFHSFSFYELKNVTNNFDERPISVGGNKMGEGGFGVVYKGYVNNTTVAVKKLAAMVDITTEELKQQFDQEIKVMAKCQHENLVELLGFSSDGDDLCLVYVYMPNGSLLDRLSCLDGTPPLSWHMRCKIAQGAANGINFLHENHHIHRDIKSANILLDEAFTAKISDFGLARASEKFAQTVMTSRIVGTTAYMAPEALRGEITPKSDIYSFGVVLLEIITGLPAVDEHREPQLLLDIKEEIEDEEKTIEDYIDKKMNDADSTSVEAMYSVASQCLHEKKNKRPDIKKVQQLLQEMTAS
Protocol: (§1) The Kinome Screening was performed by Reaction Biology Europe GmbH (http://reactionbiology.com; Freiburg i. Br., Germany).

MAP3K11 = target: T2, MAP3K11 (Homo sapiens, UniProt Q16584)
T2 construct: purchased Reaction Biology Europe GmbH (formerly ProQinase)
Protocol: as §1

PKCμ = target: T3, PKCμ (Homo sapiens, UniProt Q15139)
T3 construct: purchased Reaction Biology Europe GmbH (formerly ProQinase)
T3 sequence (Q15139 1-912): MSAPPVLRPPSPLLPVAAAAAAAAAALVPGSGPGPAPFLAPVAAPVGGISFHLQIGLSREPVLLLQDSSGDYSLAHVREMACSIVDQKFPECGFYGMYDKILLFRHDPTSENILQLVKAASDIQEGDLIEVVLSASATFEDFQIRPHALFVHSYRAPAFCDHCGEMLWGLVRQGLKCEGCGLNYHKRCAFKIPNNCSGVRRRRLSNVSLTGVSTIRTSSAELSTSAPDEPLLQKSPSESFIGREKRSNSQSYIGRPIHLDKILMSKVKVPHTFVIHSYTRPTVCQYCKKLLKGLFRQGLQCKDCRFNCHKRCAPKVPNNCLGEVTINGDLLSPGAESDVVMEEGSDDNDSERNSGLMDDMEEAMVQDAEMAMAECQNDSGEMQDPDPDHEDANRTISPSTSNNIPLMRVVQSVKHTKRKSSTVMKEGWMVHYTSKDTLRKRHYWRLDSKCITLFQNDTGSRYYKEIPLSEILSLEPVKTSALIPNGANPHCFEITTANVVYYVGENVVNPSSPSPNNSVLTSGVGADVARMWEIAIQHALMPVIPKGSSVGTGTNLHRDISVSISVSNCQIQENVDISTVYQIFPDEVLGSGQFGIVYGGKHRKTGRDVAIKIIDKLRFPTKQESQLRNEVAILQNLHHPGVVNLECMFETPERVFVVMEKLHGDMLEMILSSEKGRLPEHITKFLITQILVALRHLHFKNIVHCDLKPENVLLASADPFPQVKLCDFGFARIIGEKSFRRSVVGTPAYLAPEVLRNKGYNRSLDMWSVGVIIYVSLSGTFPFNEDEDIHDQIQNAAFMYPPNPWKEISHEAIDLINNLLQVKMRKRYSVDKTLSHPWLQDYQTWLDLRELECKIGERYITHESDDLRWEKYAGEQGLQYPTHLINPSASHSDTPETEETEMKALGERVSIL
Protocol: as §1

CDK4/CycD2 = target: T4, CDK4/CycD2 (Homo sapiens, UniProt P11802)
T4 construct: purchased Reaction Biology Europe GmbH (formerly ProQinase)
Protocol: as §1

FGFR4 = target: T5, FGFR4 (Homo sapiens, UniProt P22455)
T5 construct: purchased Reaction Biology Europe GmbH (formerly ProQinase)
Protocol: as §1

AKT3 = target: T6, AKT3 (Homo sapiens, UniProt Q9Y243)
T6 construct: purchased Reaction Biology Europe GmbH (formerly ProQinase)
Protocol: as §1

MAP3K1 = target: T7, MAP3K1 (Homo sapiens, UniProt Q13233)
T7 construct: purchased Reaction Biology Europe GmbH (formerly ProQinase)
Protocol: as §1

CDK2/CycD1 = target: T8, CDK2/CycD1 (Homo sapiens, UniProt P24941)
T8 construct: purchased Reaction Biology Europe GmbH (formerly ProQinase)
Protocol: as §1

MATK = target: T9, MATK (Homo sapiens, UniProt P42679)
T9 construct: purchased Reaction Biology Europe GmbH (formerly ProQinase)
T9 sequence (P42679 1-507): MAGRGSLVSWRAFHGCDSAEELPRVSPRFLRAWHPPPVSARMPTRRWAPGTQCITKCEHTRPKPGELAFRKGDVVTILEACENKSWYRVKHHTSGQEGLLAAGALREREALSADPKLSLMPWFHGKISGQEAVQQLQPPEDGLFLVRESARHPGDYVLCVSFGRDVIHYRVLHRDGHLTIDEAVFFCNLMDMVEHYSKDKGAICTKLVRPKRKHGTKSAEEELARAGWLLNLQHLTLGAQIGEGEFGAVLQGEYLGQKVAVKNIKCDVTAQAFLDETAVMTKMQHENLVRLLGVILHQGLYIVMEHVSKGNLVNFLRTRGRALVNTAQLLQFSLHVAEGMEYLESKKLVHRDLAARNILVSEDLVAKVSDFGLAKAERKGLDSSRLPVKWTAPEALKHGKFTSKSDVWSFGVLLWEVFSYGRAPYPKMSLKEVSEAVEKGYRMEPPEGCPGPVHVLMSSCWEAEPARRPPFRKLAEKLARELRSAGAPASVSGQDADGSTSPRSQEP
Protocol: as §1

BRAF = target: T10, BRAF (Homo sapiens, UniProt P15056)
T10 construct: purchased Reaction Biology Europe GmbH (formerly ProQinase)
Protocol: as §1

MKNK1 = target: T11, MKNK1 (Homo sapiens, UniProt Q9BUB5)
T11 construct: purchased Reaction Biology Europe GmbH (formerly ProQinase)
Protocol: as §1

CSK = target: T12, CSK (Homo sapiens, UniProt P41240)
T12 construct: purchased Reaction Biology Europe GmbH (formerly ProQinase)
Protocol: as §1

CDK3/CycE1 = target: T13, CDK3/CycE1 (Homo sapiens, UniProt Q00526)
T13 construct: purchased Reaction Biology Europe GmbH (formerly ProQinase)
Protocol: as §1

ERK1 = target: T14, ERK1 (Homo sapiens, UniProt P27361)
T14 construct: purchased Reaction Biology Europe GmbH (formerly ProQinase)
Protocol: as §1

PIM1 = target: T15, PIM1 (Homo sapiens, UniProt P11309)
T15 construct: purchased Reaction Biology Europe GmbH (formerly ProQinase)
Protocol: as §1

T7 sequence (Q13233 whole entry): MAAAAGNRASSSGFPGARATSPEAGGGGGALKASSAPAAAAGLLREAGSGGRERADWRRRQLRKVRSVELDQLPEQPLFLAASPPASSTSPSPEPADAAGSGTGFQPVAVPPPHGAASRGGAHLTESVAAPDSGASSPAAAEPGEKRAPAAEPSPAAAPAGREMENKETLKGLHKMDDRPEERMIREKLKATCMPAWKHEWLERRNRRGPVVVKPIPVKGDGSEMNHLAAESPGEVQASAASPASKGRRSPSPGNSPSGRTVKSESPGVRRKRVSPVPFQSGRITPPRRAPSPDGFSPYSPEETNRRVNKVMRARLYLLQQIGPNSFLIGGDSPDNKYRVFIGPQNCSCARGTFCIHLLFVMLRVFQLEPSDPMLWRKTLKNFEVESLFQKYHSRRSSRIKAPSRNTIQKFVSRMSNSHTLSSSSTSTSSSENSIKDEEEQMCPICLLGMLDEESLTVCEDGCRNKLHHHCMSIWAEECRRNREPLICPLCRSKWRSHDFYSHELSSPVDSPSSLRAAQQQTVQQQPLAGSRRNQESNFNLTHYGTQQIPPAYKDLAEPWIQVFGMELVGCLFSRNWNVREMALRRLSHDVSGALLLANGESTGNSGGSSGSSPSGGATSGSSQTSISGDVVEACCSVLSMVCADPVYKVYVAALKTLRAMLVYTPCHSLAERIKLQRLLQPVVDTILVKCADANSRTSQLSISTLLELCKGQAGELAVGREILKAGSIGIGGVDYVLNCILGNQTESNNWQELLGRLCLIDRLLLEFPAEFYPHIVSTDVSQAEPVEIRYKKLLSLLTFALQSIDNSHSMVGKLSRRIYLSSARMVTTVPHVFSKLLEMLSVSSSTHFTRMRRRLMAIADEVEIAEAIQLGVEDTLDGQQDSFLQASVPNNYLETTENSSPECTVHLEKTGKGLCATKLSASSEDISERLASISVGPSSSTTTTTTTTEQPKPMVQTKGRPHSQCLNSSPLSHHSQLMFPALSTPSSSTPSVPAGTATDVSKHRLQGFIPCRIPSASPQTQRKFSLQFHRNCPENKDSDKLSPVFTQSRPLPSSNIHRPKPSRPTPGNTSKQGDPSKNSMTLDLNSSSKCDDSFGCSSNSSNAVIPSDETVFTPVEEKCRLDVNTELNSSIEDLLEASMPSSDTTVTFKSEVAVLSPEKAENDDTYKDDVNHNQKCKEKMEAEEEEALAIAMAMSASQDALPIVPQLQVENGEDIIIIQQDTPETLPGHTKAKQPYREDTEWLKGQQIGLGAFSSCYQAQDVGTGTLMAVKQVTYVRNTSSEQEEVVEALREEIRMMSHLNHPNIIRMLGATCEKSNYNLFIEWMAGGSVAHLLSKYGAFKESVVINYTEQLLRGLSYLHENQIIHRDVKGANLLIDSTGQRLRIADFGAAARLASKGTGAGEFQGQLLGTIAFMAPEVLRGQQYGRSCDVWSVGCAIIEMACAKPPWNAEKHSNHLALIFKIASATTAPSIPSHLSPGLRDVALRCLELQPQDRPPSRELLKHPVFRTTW
T13 sequence (Q00526 whole entry): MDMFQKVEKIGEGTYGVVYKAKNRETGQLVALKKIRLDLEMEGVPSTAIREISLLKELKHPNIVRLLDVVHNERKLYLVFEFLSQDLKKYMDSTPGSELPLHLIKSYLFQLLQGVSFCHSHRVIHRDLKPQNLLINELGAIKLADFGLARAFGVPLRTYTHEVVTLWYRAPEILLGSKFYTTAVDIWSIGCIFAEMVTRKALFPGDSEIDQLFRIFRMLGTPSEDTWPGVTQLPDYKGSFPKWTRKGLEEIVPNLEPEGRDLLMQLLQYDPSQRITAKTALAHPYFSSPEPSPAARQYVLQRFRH
T13 sequence (P24864 whole entry partner): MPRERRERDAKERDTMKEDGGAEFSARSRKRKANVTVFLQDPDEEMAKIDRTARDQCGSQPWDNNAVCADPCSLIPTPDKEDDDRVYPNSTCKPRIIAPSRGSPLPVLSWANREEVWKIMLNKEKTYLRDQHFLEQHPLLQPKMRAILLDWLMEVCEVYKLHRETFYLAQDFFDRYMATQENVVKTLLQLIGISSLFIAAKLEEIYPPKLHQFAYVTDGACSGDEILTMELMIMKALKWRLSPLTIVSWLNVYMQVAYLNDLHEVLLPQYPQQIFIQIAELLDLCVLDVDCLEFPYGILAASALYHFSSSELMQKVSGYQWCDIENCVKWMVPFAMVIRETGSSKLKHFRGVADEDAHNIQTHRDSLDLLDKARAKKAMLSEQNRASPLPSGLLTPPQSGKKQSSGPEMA
T11 sequence (Q9BUB5 whole entry): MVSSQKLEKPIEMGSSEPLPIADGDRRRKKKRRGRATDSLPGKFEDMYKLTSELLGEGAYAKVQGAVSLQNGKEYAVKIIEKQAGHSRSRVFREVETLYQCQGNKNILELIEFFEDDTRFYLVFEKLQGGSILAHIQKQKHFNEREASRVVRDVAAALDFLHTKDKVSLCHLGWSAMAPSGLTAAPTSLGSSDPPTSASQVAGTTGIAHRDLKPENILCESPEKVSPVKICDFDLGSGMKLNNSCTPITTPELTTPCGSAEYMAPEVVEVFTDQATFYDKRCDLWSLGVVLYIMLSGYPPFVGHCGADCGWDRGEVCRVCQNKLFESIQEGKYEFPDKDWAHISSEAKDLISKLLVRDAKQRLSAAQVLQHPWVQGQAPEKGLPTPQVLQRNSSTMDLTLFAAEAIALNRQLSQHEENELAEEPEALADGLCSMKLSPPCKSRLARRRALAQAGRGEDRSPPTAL
T15 sequence (P11309 whole entry): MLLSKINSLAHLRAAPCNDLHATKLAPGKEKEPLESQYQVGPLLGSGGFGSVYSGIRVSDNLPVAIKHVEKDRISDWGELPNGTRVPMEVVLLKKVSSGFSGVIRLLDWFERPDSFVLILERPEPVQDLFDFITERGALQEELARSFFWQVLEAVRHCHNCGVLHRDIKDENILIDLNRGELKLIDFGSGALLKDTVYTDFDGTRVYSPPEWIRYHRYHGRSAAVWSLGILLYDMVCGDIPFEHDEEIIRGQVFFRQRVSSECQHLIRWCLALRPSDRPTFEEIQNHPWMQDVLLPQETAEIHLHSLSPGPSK
T4 sequence (P11802 whole entry): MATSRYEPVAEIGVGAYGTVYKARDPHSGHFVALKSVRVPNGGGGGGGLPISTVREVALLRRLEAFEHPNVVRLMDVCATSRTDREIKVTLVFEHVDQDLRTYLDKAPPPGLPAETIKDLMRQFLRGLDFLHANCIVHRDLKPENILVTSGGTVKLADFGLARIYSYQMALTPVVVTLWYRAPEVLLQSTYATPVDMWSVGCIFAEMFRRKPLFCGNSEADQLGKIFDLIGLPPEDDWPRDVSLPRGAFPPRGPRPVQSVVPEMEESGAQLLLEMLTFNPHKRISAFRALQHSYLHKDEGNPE
T4 sequence (P30279 whole entry partner): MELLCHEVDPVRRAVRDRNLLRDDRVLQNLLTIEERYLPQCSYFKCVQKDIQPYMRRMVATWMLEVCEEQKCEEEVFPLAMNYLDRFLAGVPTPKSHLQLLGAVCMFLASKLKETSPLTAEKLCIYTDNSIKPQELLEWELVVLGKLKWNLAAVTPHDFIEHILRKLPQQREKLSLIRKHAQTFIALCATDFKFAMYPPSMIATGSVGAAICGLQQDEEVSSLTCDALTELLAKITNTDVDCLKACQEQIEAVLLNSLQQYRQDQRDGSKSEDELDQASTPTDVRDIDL
T2 sequence (Q16584 whole entry): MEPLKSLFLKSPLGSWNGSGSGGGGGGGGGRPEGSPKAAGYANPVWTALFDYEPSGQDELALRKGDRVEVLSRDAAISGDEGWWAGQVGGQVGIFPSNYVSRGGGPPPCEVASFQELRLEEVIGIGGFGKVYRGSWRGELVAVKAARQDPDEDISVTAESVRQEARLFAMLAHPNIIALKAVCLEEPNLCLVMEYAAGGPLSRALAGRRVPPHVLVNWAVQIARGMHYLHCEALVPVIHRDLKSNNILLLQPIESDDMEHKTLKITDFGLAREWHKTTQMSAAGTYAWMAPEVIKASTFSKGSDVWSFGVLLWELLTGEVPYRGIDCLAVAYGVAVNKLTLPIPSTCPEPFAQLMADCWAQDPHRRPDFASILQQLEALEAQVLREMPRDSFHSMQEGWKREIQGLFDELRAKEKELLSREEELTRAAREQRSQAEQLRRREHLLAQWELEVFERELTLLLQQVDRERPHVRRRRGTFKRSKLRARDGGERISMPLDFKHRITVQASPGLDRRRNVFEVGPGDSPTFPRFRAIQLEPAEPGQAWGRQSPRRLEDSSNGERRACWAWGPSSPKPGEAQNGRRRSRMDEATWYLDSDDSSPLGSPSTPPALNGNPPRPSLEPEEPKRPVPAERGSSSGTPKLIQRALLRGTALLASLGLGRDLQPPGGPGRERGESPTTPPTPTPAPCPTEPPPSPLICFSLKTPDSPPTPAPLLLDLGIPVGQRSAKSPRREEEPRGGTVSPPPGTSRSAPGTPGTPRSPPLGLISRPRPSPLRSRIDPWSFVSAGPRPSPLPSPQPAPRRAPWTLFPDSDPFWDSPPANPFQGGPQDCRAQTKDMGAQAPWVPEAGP
T12 sequence (P41240 whole entry): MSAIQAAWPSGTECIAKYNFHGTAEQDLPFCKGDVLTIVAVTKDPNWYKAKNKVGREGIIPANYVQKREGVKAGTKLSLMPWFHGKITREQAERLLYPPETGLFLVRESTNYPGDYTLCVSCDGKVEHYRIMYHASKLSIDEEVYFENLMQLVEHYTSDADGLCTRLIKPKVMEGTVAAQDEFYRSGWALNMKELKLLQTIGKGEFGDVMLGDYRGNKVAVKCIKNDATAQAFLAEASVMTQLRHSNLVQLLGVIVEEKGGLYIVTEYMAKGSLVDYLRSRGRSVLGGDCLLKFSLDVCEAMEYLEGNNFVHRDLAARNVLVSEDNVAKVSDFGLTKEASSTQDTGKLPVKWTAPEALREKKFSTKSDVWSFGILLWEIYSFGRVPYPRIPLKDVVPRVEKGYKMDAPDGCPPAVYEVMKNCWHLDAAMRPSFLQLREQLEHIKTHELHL

COc1ccnc2[nH]cc(-c3cc(N)nc(N)c3)c12 [meriolin 16]
residual kinase activity (IRAK4; 0.03 µM): 83 % of control | residual kinase activity (IRAK4; 0.3 µM): 50 % of control | residual kinase activity (MAP3K11; 0.03 µM): 100 % of control | residual kinase activity (MAP3K11; 0.3 µM): 74 % of control | residual kinase activity (PKCμ; 0.03 µM): 77 % of control | residual kinase activity (PKCμ; 0.3 µM): 24 % of control | residual kinase activity (CDK4/CycD2; 0.03 µM): 81 % of control | residual kinase activity (CDK4/CycD2; 0.3 µM): 34 % of control | residual kinase activity (FGFR4; 0.03 µM): 91 % of control | residual kinase activity (FGFR4; 0.3 µM): 87 % of control | residual kinase activity (AKT3; 0.03 µM): 108 % of control | residual kinase activity (AKT3; 0.3 µM): 82 % of control | residual kinase activity (MAP3K1; 0.03 µM): 105 % of control | residual kinase activity (MAP3K1; 0.3 µM): 106 % of control | residual kinase activity (CDK2/CycD1; 0.03 µM): 54 % of control | residual kinase activity (CDK2/CycD1; 0.3 µM): 23 % of control | residual kinase activity (MATK; 0.03 µM): 107 % of control | residual kinase activity (MATK; 0.3 µM): 90 % of control | residual kinase activity (BRAF; 0.03 µM): 94 % of control | residual kinase activity (MKNK1; 0.03 µM): 97 % of control | residual kinase activity (MKNK1; 0.3 µM): 70 % of control | residual kinase activity (CSK; 0.03 µM): 114 % of control | residual kinase activity (CSK; 0.3 µM): 106 % of control | residual kinase activity (CDK3/CycE1; 0.03 µM): 36 % of control | residual kinase activity (CDK3/CycE1; 0.3 µM): 5 % of control | residual kinase activity (ERK1; 0.03 µM): 111 % of control | residual kinase activity (ERK1; 0.3 µM): 96 % of control | residual kinase activity (PIM1; 0.03 µM): 77 % of control | residual kinase activity (PIM1; 0.3 µM): 40 % of control

c1ccc(CNc2cc(-c3c[nH]c4ncccc34)ccn2)cc1 [meriolin 36]
residual kinase activity (IRAK4; 0.3 µM): 14 % of control | residual kinase activity (IRAK4; 3 µM): 2 % of control | residual kinase activity (MAP3K11; 0.3 µM): 45 % of control | residual kinase activity (MAP3K11; 3 µM): 4 % of control | residual kinase activity (PKCμ; 0.3 µM): 63 % of control | residual kinase activity (PKCμ; 3 µM): 23 % of control | residual kinase activity (CDK4/CycD2; 0.3 µM): 21 % of control | residual kinase activity (CDK4/CycD2; 3 µM): 3 % of control | residual kinase activity (FGFR4; 0.3 µM): 98 % of control | residual kinase activity (FGFR4; 3 µM): 58 % of control | residual kinase activity (AKT3; 0.3 µM): 93 % of control | residual kinase activity (AKT3; 3 µM): 42 % of control | residual kinase activity (MAP3K1; 0.3 µM): 94 % of control | residual kinase activity (MAP3K1; 3 µM): 93 % of control | residual kinase activity (CDK2/CycD1; 0.3 µM): 6 % of control | residual kinase activity (CDK2/CycD1; 3 µM): 5 % of control | residual kinase activity (MATK; 0.3 µM): 134 % of control | residual kinase activity (MATK; 3 µM): 94 % of control | residual kinase activity (BRAF; 0.3 µM): 66 % of control | residual kinase activity (BRAF; 3 µM): 50 % of control | residual kinase activity (MKNK1; 0.3 µM): 48 % of control | residual kinase activity (MKNK1; 3 µM): 16 % of control | residual kinase activity (CSK; 0.3 µM): 116 % of control | residual kinase activity (CSK; 3 µM): 71 % of control | residual kinase activity (CDK3/CycE1; 0.3 µM): 1 % of control | residual kinase activity (CDK3/CycE1; 3 µM): -1 % of control | residual kinase activity (ERK1; 0.3 µM): 72 % of control | residual kinase activity (ERK1; 3 µM): 37 % of control | residual kinase activity (PIM1; 0.3 µM): 55 % of control | residual kinase activity (PIM1; 3 µM): 14 % of control

From PMC11167047 (Cell Death Discovery, 2024)
